Test results published in ChEMBL document CHEMBL2021830, “Chlorinated englerins with selective inhibition of renal cancer cell growth” (2012).

What was measured:
Assay type in all cases: functional
[1] = system: TK-10; test: Growth inhibition of human TK10 cells after 48 hrs by SRB assay
[2] = system: 786-0; test: Growth inhibition of human 786-0 cells after 48 hrs by SRB assay
[3] = system: UO-31; test: Growth inhibition of human UO31 cells after 48 hrs
[4] = system: ACHN; test: Growth inhibition of human ACHN cells after 48 hrs by SRB assay
[5] = system: A498; test: Growth inhibition of human A498 cells after 48 hrs
[6] = system: CAKI-1; test: Growth inhibition of human CAKI-1 cells after 48 hrs by SRB assay
[7] = system: SN12C; test: Growth inhibition of human SN12C cells after 48 hrs by SRB assay
[8] = system: RXF 393; test: Growth inhibition of human RXF393 cells after 48 hrs by SRB assay

Question: For CC(C)[C@@]12C[C@@H](OC(=O)CO)[C@@](C)(O1)[C@@H]1CC[C@@H](C)[C@H]1[C@@H]2OC(=O)/C(Cl)=C/c1ccccc1, which GI50 ([1]; Homo sapiens, TK-10, 48 h) is on record?
Answer: 21000 nM

Question: And the GI50 ([2]; Homo sapiens, 786-0, 48 h)?
Answer: 10000 nM

Question: What about the GI50 ([3]; Homo sapiens, UO-31, 48 h) of the same molecule?
Answer: 35 nM

Question: What about the GI50 ([4]; Homo sapiens, ACHN, 48 h) of the same molecule?
Answer: 41 nM

Question: And the GI50 ([5]; Homo sapiens, A498, 48 h)?
Answer: 28 nM

Question: And the GI50 ([6]; Homo sapiens, CAKI-1, 48 h)?
Answer: 390 nM

Question: What about the GI50 ([7]; Homo sapiens, SN12C, 48 h) of the same molecule?
Answer: 560 nM

Question: What about the GI50 ([8]; Homo sapiens, RXF 393, 48 h) of the same molecule?
Answer: 59 nM

Question: With CC(C)[C@@]12C[C@@H](OC(=O)CO)[C@@](C)(O1)[C@@H]1CC[C@@H](C)[C@H]1[C@@H]2OC(=O)C(Cl)C(O)c1ccccc1 (single isomer, unassigned) as the molecule, how does the GI50 [1] read?
Answer: 27000 nM

Question: And the GI50 [2]?
Answer: 11000 nM

Question: And the GI50 [3]?
Answer: 1900 nM

Question: What about the GI50 [4] of the same molecule?
Answer: 1400 nM

Question: What about the GI50 [5] of the same molecule?
Answer: 660 nM

Question: What about the GI50 [6] of the same molecule?
Answer: 5000 nM

Question: What about the GI50 [7] of the same molecule?
Answer: 4700 nM

Question: And the GI50 [8]?
Answer: 390 nM

Question: Which results are given for CC(C)[C@@]12C[C@@H](OC(=O)CO)[C@@](C)(O1)[C@@H]1CC[C@@H](C)[C@H]1[C@@H]2OC(=O)C(Cl)C(Cl)c1ccccc1 (single isomer, unassigned; epimer 1)?
Answer: GI50 ([1]; Homo sapiens, TK-10, 48 h): 18000 nM; GI50 ([2]; Homo sapiens, 786-0, 48 h): 12000 nM; GI50 [3]: 390 nM; GI50 [4]: 140 nM; GI50 [5]: 140 nM; GI50 [6]: 420 nM; GI50 ([7]; Homo sapiens, SN12C, 48 h): 930 nM

Question: CC(C)[C@@]12C[C@@H](OC(=O)CO)[C@@](C)(O1)[C@@H]1CC[C@@H](C)[C@H]1[C@@H]2OC(=O)C(Cl)C(O)c1ccccc1 (single isomer, unassigned; epimer 1) was tested. Which GI50 ([1]; Homo sapiens, TK-10, 48 h) did it give?
Answer: 17000 nM

Question: What about the GI50 [2] of the same molecule?
Answer: 1700 nM

Question: And the GI50 [3]?
Answer: 250 nM

Question: What about the GI50 [4] of the same molecule?
Answer: 320 nM

Question: And the GI50 [5]?
Answer: 180 nM

Question: What about the GI50 [6] of the same molecule?
Answer: 460 nM

Question: And the GI50 [7]?
Answer: 630 nM

Question: And the GI50 ([8]; Homo sapiens, RXF 393, 48 h)?
Answer: 510 nM

Question: Which results are given for CC(C)[C@@]12C[C@@H](OC(=O)CO)[C@@](C)(O1)[C@@H]1CC[C@@H](C)[C@H]1[C@@H]2OC(=O)C(Cl)C(Cl)c1ccccc1 (single isomer, unassigned; epimer 2)?
Answer: GI50 [1]: 25000 nM; GI50 [3]: 160 nM; GI50 [4]: 49 nM; GI50 [5]: 67 nM; GI50 [6]: 160 nM; GI50 [7]: 1000 nM
